This note sets out measurements from US20250212877A1, “SUGAR-CONTAINING COMPOSITION FOR FOLIAR SPRAY AND METHOD OF USING THE SAME” (priority 2022, published 2025).

Bounds are passed on as bounds.

In the series the test system is tomato leaf. Briefly: Foliar absorption rate of sugar, Congo red method, tomato leaf. To be noted: summary of TABLE 1 over tomato and strawberry leaves; no adjuvant.

Description: In glass greenhouse, cucumber (Korean White, made by Farm Hannong, Korea) and tomato (Seogwangtomato, made by Farm Hannong, Korea) seeds were sown to raise plants. The young plants were transplanted to a vinyl cup having a diameter of 10 cm and cucumber was cultivated up to 4.5-leaf stage and tomato was cultivated up to 6.5-leaf stage. Strawberry young plants (KINGSBERRY) were given from strawberry laboratory, put in each cup pot having a diameter of 10 cm and cultivated up to 6 to 8-leaf stage in the greenhouse. […] Acetonitrile and nonionized water were mixed at 3:7 (volume/volume) to prepare a 30% acetonitrile aqueous solution, 8 ml was put into a test tube having an outer diameter of 32 mm and a length of 200 mm and the test tube was closed with a rubber lid. The leaves sprayed with the sugar aqueous solution was picked, put and cleaned by reverse shaking at the speed of 60 rpm for 2 minutes. The cleaning solution was analyzed by high-performance liquid chromatography (HPLC) to quantify Congo red and sugar, and the sugar absorption rate was calculated by the following Equation 1.

Consider `OC[C@H]1O[C@@](CO)(O[C@H]2O[C@H](CO)[C@@H](O)[C@H](O)[C@H]2O)[C@@H](O)[C@@H]1O` [sucrose], for which the “Absorption by tomato leaves and strawberry leaves, maximum” value is reported as not above 1.3%.
